Data as given in ChEMBL document CHEMBL1201862, “PubChem BioAssay data set” (2004).
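Growth conditions: 96-well plates. Treatment: test compound, 48 hours, 5 concentrations. Analysis: linear interpolation between bracketing concentrations; unreached endpoints set to highest concentration. At the GI50, growth is halved.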 The source made the active and inactive calls. No stated cut-off is given here; in the data, active = GI50 up to about 1.1 µM and inactive = higher.

Columns and labels:
Assay in all cases: growth of human tumour cells (NCI), 48 h
[1] = test system: HT-29
[2] = test system: A549
[3] = test system: SK-OV-3
[4] = test system: OVCAR-5
[5] = test system: OVCAR-3
[6] = test system: K562
[7] = test system: OVCAR-4
[8] = test system: NCI/ADR-RES
[9] = test system: SF-268
[10] = test system: Malme-3M
[11] = test system: CAKI-1
[12] = test system: SK-MEL-28
[13] = test system: HL-60
[14] = test system: OVCAR-8
[15] = test system: RPMI-8226
[16] = test system: A498
[17] = test system: HCT-15
[18] = test system: ACHN
[19] = test system: M14
[20] = test system: SR

SMILES | GI50 [1] | GI50 [2] | GI50 [3] | GI50 [4] | GI50 [5] | GI50 [6] | GI50 [7] | GI50 [8] | GI50 [9] | GI50 [10] | GI50 [11] | GI50 [12] | GI50 [13] | GI50 [14] | GI50 [15] | GI50 [16] | GI50 [17] [µM] | GI50 [18] | GI50 [19] | GI50 [20]
CC[C@]12C=CCN3CC[C@@]4(c5ccc(OC)cc5N(C)[C@H]4[C@@](O)(C(=O)OC)[C@@H]1OC(C)=O)[C@@H]32 | > 200 µM (inactive) | 162 µM (inactive) | > 200 µM (inactive) | > 200 µM (inactive) | 102 µM (inactive) | 131 µM (inactive) | 35.4 µM (inactive) | 156 µM (inactive) | 138 µM (inactive) | > 200 µM (inactive) | 15.5 µM (inactive) | > 200 µM (inactive) | 89.3 µM (inactive) | 19.5 µM (inactive) | 93.8 µM (inactive) | 102 µM (inactive) | 75.3 | – | – | –
COc1ccc(-n2sc3ncc(-c4ccccc4)cc3c2=O)cc1 | – | 35.9 µM (inactive) | > 100 µM (inactive) | 26.2 µM (inactive) | 20.3 µM (inactive) | – | 23.3 µM (inactive) | 72.9 µM (inactive) | – | – | 27.4 µM (inactive) | 37 µM (inactive) | 20.5 µM (inactive) | 25.5 µM (inactive) | 18.2 µM (inactive) | > 100 µM (inactive) | 35.6 | 21.6 µM (inactive) | 80 µM (inactive) | –
CC(C)(C)[Si](C)(C)OCCCC#CCO | > 100 µM (inactive) | > 100 µM (inactive) | > 100 µM (inactive) | > 100 µM (inactive) | – | 98.2 µM (inactive) | > 100 µM (inactive) | – | > 100 µM (inactive) | > 100 µM (inactive) | > 100 µM (inactive) | > 100 µM (inactive) | 25.8 µM (inactive) | > 100 µM (inactive) | 64.9 µM (inactive) | > 100 µM (inactive) | > 100 | > 100 µM (inactive) | > 100 µM (inactive) | –
CCNC(=O)C(C)C1CCC2(C)C=CC(=O)C(C)=C2C1O (centres undefined) | > 100 µM (inactive) | 99.5 µM (inactive) | > 100 µM (inactive) | > 100 µM (inactive) | > 100 µM (inactive) | > 100 µM (inactive) | > 100 µM (inactive) | > 100 µM (inactive) | > 100 µM (inactive) | – | > 100 µM (inactive) | > 100 µM (inactive) | > 100 µM (inactive) | > 100 µM (inactive) | > 100 µM (inactive) | > 100 µM (inactive) | > 100 | – | – | –
CC(=O)NC(CCCN(Cc1ccccc1)C(=O)N(C)N=O)C(=O)NCc1ccccc1 (centres undefined) | > 100 µM (inactive) | > 100 µM (inactive) | > 100 µM (inactive) | > 100 µM (inactive) | > 100 µM (inactive) | > 100 µM (inactive) | > 100 µM (inactive) | – | 95.3 µM (inactive) | > 100 µM (inactive) | > 100 µM (inactive) | > 100 µM (inactive) | – | > 100 µM (inactive) | > 100 µM (inactive) | > 100 µM (inactive) | > 100 | > 100 µM (inactive) | > 100 µM (inactive) | –
CC1=CC(O)C(O)C2(C)C1CC1OC(=O)C(O)C3C(C)C(O)C4(O)OCC13C42 (centres undefined) | 38.1 µM (inactive) | 27.9 µM (inactive) | 49.9 µM (inactive) | 161 µM (inactive) | 10.2 µM (inactive) | 37.2 µM (inactive) | 40.9 µM (inactive) | 242 µM (inactive) | 133 µM (inactive) | 97.7 µM (inactive) | 32.8 µM (inactive) | 118 µM (inactive) | 33 µM (inactive) | 32.1 µM (inactive) | 16.9 µM (inactive) | 17.9 µM (inactive) | 335 | – | – | –
Cc1cn(C2CC(O)C(Cn3cc(Cn4nc(Br)c(=O)[nH]c4=O)nn3)O2)c(=O)[nH]c1=O (centres undefined) | – | > 100 µM (inactive) | > 100 µM (inactive) | > 100 µM (inactive) | > 100 µM (inactive) | – | > 100 µM (inactive) | > 100 µM (inactive) | > 100 µM (inactive) | 78 µM (inactive) | > 100 µM (inactive) | > 100 µM (inactive) | – | > 100 µM (inactive) | > 100 µM (inactive) | > 100 µM (inactive) | > 100 | > 100 µM (inactive) | > 100 µM (inactive) | –
COc1ccc(C[C@H](N)C(=O)N2C[C@@H](CO)C[C@@H](n3cnc4c(N(C)C)ncnc43)C2)cc1 | > 100 µM (inactive) | > 100 µM (inactive) | > 100 µM (inactive) | > 100 µM (inactive) | > 100 µM (inactive) | > 100 µM (inactive) | – | – | > 100 µM (inactive) | > 100 µM (inactive) | > 100 µM (inactive) | > 100 µM (inactive) | > 100 µM (inactive) | > 100 µM (inactive) | > 100 µM (inactive) | – | > 100 | – | > 100 µM (inactive) | > 100 µM (inactive)
COc1cc(C=O)cc(O)c1O | 8.07 µM (inactive) | > 100 µM (inactive) | > 100 µM (inactive) | – | > 100 µM (inactive) | > 100 µM (inactive) | – | – | > 100 µM (inactive) | > 100 µM (inactive) | – | > 100 µM (inactive) | 46.7 µM (inactive) | > 100 µM (inactive) | > 100 µM (inactive) | – | > 100 | > 100 µM (inactive) | > 100 µM (inactive) | 57.9 µM (inactive)
CC(C)[C@](O)(C(=O)OCC1CC[N+]2([O-])CC[C@@H](O)C12)[C@H](C)O (some centres undefined) | > 375 µM (inactive) | > 375 µM (inactive) | > 375 µM (inactive) | > 375 µM (inactive) | > 375 µM (inactive) | > 375 µM (inactive) | > 375 µM (inactive) | > 375 µM (inactive) | > 375 µM (inactive) | > 255 µM (inactive) | > 375 µM (inactive) | > 375 µM (inactive) | > 375 µM (inactive) | > 375 µM (inactive) | > 375 µM (inactive) | > 59.4 µM (inactive) | > 375 | – | – | –
COC1CCC(CO)OO1 (centres undefined) | 28.9 µM (inactive) | – | > 100 µM (inactive) | 25.9 µM (inactive) | 18 µM (inactive) | 4.73 µM (inactive) | 45.9 µM (inactive) | – | 35.8 µM (inactive) | 59.7 µM (inactive) | – | 52 µM (inactive) | 18.4 µM (inactive) | – | 19.1 µM (inactive) | 13.1 µM (inactive) | – | 38.2 µM (inactive) | 47.9 µM (inactive) | 24.3 µM (inactive)
COc1cccc2c1[C@H]1CO[C@H]3C4C[C@H](C(=O)O)C([C@@H](C2)N13)N4C (some centres undefined) | 2.13 µM (inactive) | 8.18 µM (inactive) | – | 2.37 µM (inactive) | 1.38 µM (inactive) | 1.47 µM (inactive) | 5 µM (inactive) | 0.764 µM (active) | 1.79 µM (inactive) | 2.61 µM (inactive) | – | 2.1 µM (inactive) | 1.62 µM (inactive) | – | – | – | 1.67 | 3.85 µM (inactive) | 4.99 µM (inactive) | 1.14 µM (inactive)
CC(=O)NC(CCCCNC(=O)OC(C)(C)C)C(=O)O (centres undefined) | > 100 µM (inactive) | > 100 µM (inactive) | – | 38.1 µM (inactive) | > 100 µM (inactive) | > 100 µM (inactive) | > 100 µM (inactive) | > 100 µM (inactive) | > 100 µM (inactive) | > 100 µM (inactive) | 63.4 µM (inactive) | > 100 µM (inactive) | > 100 µM (inactive) | > 100 µM (inactive) | > 100 µM (inactive) | 26.1 µM (inactive) | > 100 | > 100 µM (inactive) | > 100 µM (inactive) | –
O=C1OC2CC=CC1C2 (centres undefined) | > 100 µM (inactive) | > 100 µM (inactive) | > 100 µM (inactive) | > 100 µM (inactive) | > 100 µM (inactive) | > 100 µM (inactive) | > 100 µM (inactive) | > 100 µM (inactive) | > 100 µM (inactive) | > 100 µM (inactive) | – | > 100 µM (inactive) | > 100 µM (inactive) | > 100 µM (inactive) | > 100 µM (inactive) | > 100 µM (inactive) | > 100 | – | – | –
C1CNCCNCCNCCN1 | 63.5 µM (inactive) | > 100 µM (inactive) | > 100 µM (inactive) | > 100 µM (inactive) | 72.6 µM (inactive) | 70.5 µM (inactive) | – | – | – | > 100 µM (inactive) | – | > 100 µM (inactive) | 62.7 µM (inactive) | > 100 µM (inactive) | > 100 µM (inactive) | > 100 µM (inactive) | > 10 | > 100 µM (inactive) | > 100 µM (inactive) | 51.6 µM (inactive)
Nc1ncnc2c1nnn2C1OC(CO)C(O)C1O (centres undefined) | 6.78 µM (inactive) | 3.65 µM (inactive) | 0.822 µM (active) | 4.37 µM (inactive) | 5.5 µM (inactive) | 1.61 µM (inactive) | 8.85 µM (inactive) | 8.97 µM (inactive) | 6.3 µM (inactive) | 3.58 µM (inactive) | 4.5 µM (inactive) | 12.4 µM (inactive) | 0.405 µM (active) | 2.87 µM (inactive) | 1.88 µM (inactive) | 3.94 µM (inactive) | 2.54 | – | – | –
COc1cc2c(oc(=O)c3cc4cc([Si](C)(C)C)oc4c(OC)c32)c2cccc(O)c12 | > 100 µM (inactive) | > 100 µM (inactive) | > 100 µM (inactive) | > 100 µM (inactive) | > 100 µM (inactive) | > 100 µM (inactive) | > 100 µM (inactive) | – | > 100 µM (inactive) | > 100 µM (inactive) | > 100 µM (inactive) | > 100 µM (inactive) | > 100 µM (inactive) | > 100 µM (inactive) | > 100 µM (inactive) | 78.9 µM (inactive) | > 100 | > 100 µM (inactive) | > 100 µM (inactive) | > 100 µM (inactive)
